Data from article PMC4871426, “The Regulation of para-Nitrophenol Degradation in Pseudomonas putida DLL-E4” (PLoS ONE, 2016).

Tests used:
PnpC1C2 = biological target: T1, PnpC1C2 (Pseudomonas putida, UniProt C6FI41); experiment: UV spectral change, absorption increase at […] nm; type: biochemical; conditions: conditions as in an earlier paper
T1 construct: gene pnpC2; two-subunit complex, C-terminal His tag, expressed in E. coli BL21(DE3), Ni-NTA purified; with hydroquinone dioxygenase alpha subunit (hydroquinone 1,2-dioxygenase small subunit)
T1 sequence (C6FI41 1-339): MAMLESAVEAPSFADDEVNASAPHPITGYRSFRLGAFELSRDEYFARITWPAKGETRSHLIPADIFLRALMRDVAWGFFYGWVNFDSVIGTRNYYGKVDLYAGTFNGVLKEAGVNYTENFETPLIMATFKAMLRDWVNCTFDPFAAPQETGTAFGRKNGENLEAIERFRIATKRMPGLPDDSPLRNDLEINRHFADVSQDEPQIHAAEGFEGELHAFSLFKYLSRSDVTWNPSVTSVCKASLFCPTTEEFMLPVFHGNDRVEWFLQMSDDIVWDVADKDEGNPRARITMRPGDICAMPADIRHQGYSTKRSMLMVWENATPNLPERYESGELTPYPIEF
T1 sequence (C6FI40 1-164 partner): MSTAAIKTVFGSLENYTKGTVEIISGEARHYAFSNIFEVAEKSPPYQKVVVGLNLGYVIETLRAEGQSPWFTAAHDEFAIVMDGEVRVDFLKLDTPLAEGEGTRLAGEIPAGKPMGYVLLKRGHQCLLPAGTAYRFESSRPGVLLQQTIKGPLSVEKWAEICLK

PnpA = biological target: T2, PnpA (Pseudomonas putida, UniProt C6FI48); experiment: colour change of PNP oxidation by purified enzyme; type: biochemical; conditions: conditions as in an earlier paper
T2 construct: His-tagged (pET-pnpAhis), expressed in E. coli BL21(DE3), purified
T2 sequence (C6FI48 1-418): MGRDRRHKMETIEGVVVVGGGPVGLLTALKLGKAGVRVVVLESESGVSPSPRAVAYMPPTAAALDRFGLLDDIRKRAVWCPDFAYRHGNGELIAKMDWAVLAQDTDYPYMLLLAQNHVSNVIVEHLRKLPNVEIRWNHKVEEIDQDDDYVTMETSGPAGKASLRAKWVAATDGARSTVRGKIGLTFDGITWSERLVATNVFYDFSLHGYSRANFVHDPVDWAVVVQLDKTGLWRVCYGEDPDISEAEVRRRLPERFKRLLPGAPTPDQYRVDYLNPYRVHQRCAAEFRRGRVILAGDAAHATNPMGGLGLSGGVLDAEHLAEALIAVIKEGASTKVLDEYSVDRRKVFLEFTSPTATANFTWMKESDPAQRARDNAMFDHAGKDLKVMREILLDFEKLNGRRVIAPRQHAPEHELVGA

Row | Structure (SMILES) | UV spectral change, absorption increase at 320 nm (PnpC1C2) | colour change of PNP oxidation by purified enzyme (PnpA)
1 | Oc1ccc(O)cc1 [hydroquinone] | PnpC1C2 and PnpC1C2b both transformed HQ into γ-hydroxymuconic semialdehyde in vitro | –
2 | O=[N+]([O-])c1ccc(O)cc1 [para-nitrophenol] | – | only PnpA had the ability to oxidize PNP
